Assay results taken from the OPERA property sets (Mansouri et al. 2018).

| logP | Compound |
| --- | --- |
| 3.6 | CC=NN(C(=O)c1ccc(C)cc1)c1ccccc1 |
| 3.73 | O=C(c1ccccc1)N(NC(=S)Nc1ccccc1)c1ccccc1 |
| 2.68 | CN(NC(=S)Nc1ccccc1)C(=O)c1ccc([N+](=O)[O-])cc1 |
| 0.75 | CN(N)C(=O)c1ccc([N+](=O)[O-])cc1 |
| 2.47 | CN(NC(=S)Nc1ccccc1)C(=O)c1ccccc1 |
| 2.3 | NN(C(=O)c1ccccc1)c1ccccc1 |
| 3.18 | CC=NN(C(=O)c1ccc(OC)cc1)c1ccccc1 |
| 3 | Cc1ccc(C(=O)N(N)c2ccccc2)cc1 |
| 2.48 | NN(C(=O)c1ccc([N+](=O)[O-])cc1)c1ccccc1 |
| 2.83 | COc1ccc(C(=O)N(N)c2ccccc2)cc1 |
| 3.01 | Cc1ccc(C(=O)N(C)NC(=S)Nc2ccccc2)cc1 |
| 0.7 | CN(N)C(=O)c1ccccc1 |
| 1 | COc1ccc(C(=O)N(C)N)cc1 |
| 3.94 | COc1ccc(C(=O)N(NC(=S)Nc2ccccc2)c2ccccc2)cc1 |
| 4.08 | Cc1ccc(C(=O)N(NC(=S)Nc2ccccc2)c2ccccc2)cc1 |
| 3.08 | CC=NN(C(=O)c1ccc([N+](=O)[O-])cc1)c1ccccc1 |
| 2.76 | CC=NN(C(=O)c1ccccc1)c1ccccc1 |
| 1.36 | Cc1ccc(C(=O)N(C)N)cc1 |
| 2.56 | COc1ccc(C(=O)N(C)NC(=S)Nc2ccccc2)cc1 |
| 3.87 | O=C(c1ccc([N+](=O)[O-])cc1)N(NC(=S)Nc1ccccc1)c1ccccc1 |
